Columns and labels:
PPARδ = target: T1, PPARδ (Homo sapiens, UniProt Q03181); assay: Transfection assay for PPARδ receptors (PPAR-Gal4 / Gal4-luciferase reporter in HEK293 cells); type: cell-based; settings: unbracketed values, PPARδ standard FI = 36.1
T1 sequence (Q03181 171-441 limits assumed): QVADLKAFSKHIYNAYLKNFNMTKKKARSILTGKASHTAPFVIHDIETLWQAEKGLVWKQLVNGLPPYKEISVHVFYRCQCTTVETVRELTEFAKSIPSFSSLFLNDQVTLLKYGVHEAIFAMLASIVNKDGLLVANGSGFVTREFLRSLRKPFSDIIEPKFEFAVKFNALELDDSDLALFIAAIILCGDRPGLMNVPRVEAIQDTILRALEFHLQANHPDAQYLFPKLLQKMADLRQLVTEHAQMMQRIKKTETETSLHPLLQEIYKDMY
Description: HEK293 cells were grown in DMEM/F-12 Media supplemented with 10% FBS and glutamine (GIBCOBRL). The cells were co-transfected with DNA for PPAR-Gal4 receptor and Gal4-Luciferase Reporter using the DMRIE-C Reagent. On the following day, the DNA-containing medium were replaced with 5% Charcoal treated FBS growth medium. After six hours, cells were seeded in 96 well plate and incubated at 37° C. in CO2 incubator overnight. Cells were challenged by test compounds and incubated for 24 hours at 37° C. in 5% CO2 incubator. Luciferase activity was assayed using the Steady-Glo Luciferase Assay Kit from Promega. DMRIE-C Reagent was purchased from GIBCO Cat. No. 10459-014. OPTI-MEM I Reduced Serum Medium was purchased from GIBCO Cat. No. 31985. Steady-Glo Luciferase Assay Kit was obtained from Promega Part# E254B.

PPARγ = target: T2, PPARγ (Homo sapiens, UniProt P37231); assay: aP2 assay for PPAR gamma agonists (bDNA aP2 mRNA in preadipocytes); type: cell-based; settings: unbracketed values; PPARγ standard FI = 70.3
T2 construct: Following the challenge of the preadipocytes, cells may be lysed with lysis buffer; endogenous in cells; host or cells: preadipocytes
T2 sequence (P37231 1-505): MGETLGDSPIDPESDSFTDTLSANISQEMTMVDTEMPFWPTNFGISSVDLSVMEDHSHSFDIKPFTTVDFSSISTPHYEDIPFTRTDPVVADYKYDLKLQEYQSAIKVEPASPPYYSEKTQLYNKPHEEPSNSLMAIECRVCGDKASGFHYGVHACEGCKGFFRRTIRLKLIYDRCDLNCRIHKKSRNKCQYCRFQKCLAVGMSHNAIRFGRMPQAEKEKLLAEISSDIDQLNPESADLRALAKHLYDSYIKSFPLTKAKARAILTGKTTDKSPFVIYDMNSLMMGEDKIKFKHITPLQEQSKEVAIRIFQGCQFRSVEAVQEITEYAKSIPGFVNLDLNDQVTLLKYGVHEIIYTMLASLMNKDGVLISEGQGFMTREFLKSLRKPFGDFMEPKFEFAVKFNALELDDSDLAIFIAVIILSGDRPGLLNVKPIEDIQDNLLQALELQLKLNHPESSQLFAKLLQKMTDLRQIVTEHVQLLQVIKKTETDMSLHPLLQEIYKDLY
Description: The procedure is described in detail in Burris et al., Molecular Endocrinology, 1999, 13:410, which is hereby incorporated by reference in its entirety, and aP2 assay results of agonist intrinsic activity may be presented as fold increase over vehicle in induction of aP2 mRNA production.
Twenty-four hours after the initial seeding of the 96-well plates by hand (around 20,000/well), the differentiation assay may be initiated. Medium may be removed and replaced with 150 μl of differentiation medium containing vehicle (DMSO) or test compounds. Cells may be returned to incubator for 24 hours culture. At the termination of the challenge, medium may be removed and 100 ul of lysis buffer may be added to initiate the bDNA aP2 mRNA assay. The branched DNA assay may be performed according to the manufacturer's protocol (Bayer Diagnostics; Emeryville, Calif.). Result may be expressed as the fold increase of aP2 mRNA production activated over vehicle controls. EC50's and Emax may be determined by non-linear regression with a sigmoidal fit curve.
Following the challenge of the preadipocytes, cells may be lysed with lysis buffer (Bayer Diagnostics) containing the aP2 oligonucleotides. After a 15 minute incubation at 53° C. or 30 minutes at 37° C. incubator, 70 ul of the lysis buffer from each well may be added to a corresponding capture well (preincubated with 70 ul of blocking buffer (Bayer Diagnostics)). The capture plate may be incubated overnight at 53° C. in a plate incubator (Bayer Diagnostics). After this incubation, the bDNA and labeled probes may be annealed as directed by the manufacturer. Following a 30-minute incubation with the luminescent alkaline phosphatase substrate, dioxitane, the luminescence may be quantitated in a Dynex MLX microtiter plate luminometer. Oligonucleotide probes designed to anneal to the aP2 mRNA and function in the bDNA mRNA detection system are designed with ProbeDesigner software (Bayer Diagnostics). This software package analyzes a target sequence of interest with a series of algorithms in order to determine which regions of the sequence can perform as locations for capture, label, or spacer probe annealing. The sequences of the oligonucleotides are as follows: […]

ob/ob mice = assay: 11 day oral dosing in female ob/ob mice: serum TG, glucose, insulin; type: in vivo; settings: 1.0 mpk, oral once daily 11 days, % change vs vehicle
Description: (Female ob/ob mice (C57 BU6J-Lep^ob, Jackson Labs, Bar Harbor, Me.), 7 weeks of age, were housed two per cage in solid-bottomed shoe box cages. Room temperature was maintained at 68-72° F. and humidity at 50-65%. Room lighting was on a 12-hour light/12-hour dark cycle. Mice were fed a certified NIH Rat and Mouse diet #5K50 (P M I Nutrition Int'l, St. Louis, Mo., via W. F. Fisher and Son, Inc., Bound Brook, N.J.). Food and water were supplied ad libitum.
The compound was prepared as suspensions in 0.5% hydroxypropyl-methylcellulose (Dow Chemical, Midland, Mich.). The dosing volume was 10 mL/kg of body weight. Female ob/ob diabetic mice (8/group) were orally gavaged once daily for 11 days with either 0.5% methylcellulose in dH2O (vehicle) or PPAR agonist at 0.003, 0.01, 0.03, 0.1, 0.3, 1 mg/kg/day. Body weight was measured in the mornings on Day 1, prior to dosing, and on Day 12 before bleeding. 18 hours after the final dose for each group, the mice were anesthetized with CO2/O2 (70%:30%) and bled by retro-orbital sinus puncture into micro-tubes containing clog activator and then put in ice. The serum samples were prepared by centrifugation. Serum glucose and triglycerides were determined by using COBAS Mira Plus blood chemistry analyzer (Roche Diagnostics, N.J.). Serum insulin and free fatty acids were measured by using ALPCO insulin ELISA kit and Wako NEFA kit, respectively. […]

PPARδ FI (fold induction) (PPARδ)	PPARγ FI (fold induction) (PPARγ)	SMILES	Δ Plasma Glucose (ob/ob mice) [%]	Δ Plasma Insulin (ob/ob mice) [%]
4.2	0.24	CCN(C(=O)Nc1ccc(OC(F)(F)F)cc1)C1Cc2ccc(SC(C)(C)C(=O)O)cc2C1 (centres unmarked) [Example 2, 2-{2-[1-Ethyl-3-(4-trifluoromethoxyphenyl)ureido]indan-5-ylsulfanyl}-2-methylpropionic acid]	–	–
2.5	4.0	CCCCCN(C(=O)Nc1ccc(SC(F)(F)F)cc1)C1Cc2ccc(SC(C)(C)C(=O)O)cc2C1 (centres unmarked) [Example 5, 2-Methyl-2-{2-[1-pentyl-3-(4-trifluoromethylsulfanylphenyl)ureido]indan-5-ylsulfanyl}propionic acid]	–	–
3.6	1.9	CCN(C(=O)Nc1ccc(C(C)C)cc1)C1Cc2ccc(SC(C)(C)C(=O)O)cc2C1 (centres unmarked) [Example 6, 2-{2-[1-Ethyl-3-(4-isopropylphenyl)ureido]indan-5-ylsulfanyl}-2-methylpropionic acid]	–	–
5.9	1.9	CCCCCN(C(=O)Nc1ccc(OC(F)(F)F)cc1)C1Cc2ccc(SC(C)(C)C(=O)O)cc2C1 (centres unmarked) [Example 8, 2-Methyl-2-{2-[1-pentyl-3-(4-trifluoromethoxyphenyl)ureido]indan-5-ylsulfanyl}-2-methylpropionic acid]	–	–
1.0	2.9	CCCCCN(C(=O)Nc1ccc(N(C)C)cc1)C1Cc2ccc(SC(C)(C)C(=O)O)cc2C1 (centres unmarked) [Example 9, 2-{2-[3-(4-Dimethylaminophenyl)-1-pentylureido]indan-5-ylsulfanyl}-2-methylpropionic acid]	–	–
1.3	0.3	CCCCCCN(C(=O)Nc1ccc(OC(F)(F)F)cc1)C1Cc2ccc(SC(C)(C)C(=O)O)cc2C1 (centres unmarked) [Example 14, 2-Methyl-2-{2-[1-hexyl-3-(4-trifluoromethoxyphenyl)ureido]indan-5-ylsulfanyl}propionic acid]	–	–
–	–	CCN(C(=O)Nc1ccc(OC(F)(F)F)cc1)C1CCc2cc(SC(C)(C)C(=O)O)c(F)cc2C1 (centres unmarked) [Example 50, 2-{6-[1-Ethyl-3-(4-trifluoromethoxyphenyl)ureido]-3-fluoro-5,6,7,8-tetrahydronaphthalen-2-ylsulfanyl}-2-methylpropionic acid]	−74	−93

Reference: patent US7351857B2, “Methods of using substituted tetralins and indanes” (Janssen Pharmaceutica N.V., priority 2002, dated 2008)
